For one experiment, the target named is T1, P2X purinoceptor 1 (Homo sapiens, UniProt P51575).
T1 sequence (P51575 whole entry): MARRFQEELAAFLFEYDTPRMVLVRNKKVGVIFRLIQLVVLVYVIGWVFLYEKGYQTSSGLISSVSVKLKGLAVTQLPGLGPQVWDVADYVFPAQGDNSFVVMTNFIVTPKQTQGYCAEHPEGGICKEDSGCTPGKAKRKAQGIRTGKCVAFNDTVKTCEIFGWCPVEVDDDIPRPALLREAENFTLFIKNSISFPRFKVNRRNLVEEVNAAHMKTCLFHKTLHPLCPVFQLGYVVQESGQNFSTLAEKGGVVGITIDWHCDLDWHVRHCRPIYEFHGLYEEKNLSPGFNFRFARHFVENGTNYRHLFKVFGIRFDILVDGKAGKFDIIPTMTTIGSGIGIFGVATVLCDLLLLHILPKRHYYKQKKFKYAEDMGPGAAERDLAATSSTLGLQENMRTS
Put plainly: Inhibitory concentration against human P2X purinoceptor 1 (hP2X1) expressed in CHO-K1 cells. The format is functional, cell-based.

Experiment [1] can be described thus: Inhibitory concentration against P2X purinoceptor 2/3 expressed in 1321N1 astrocytoma cells. The experiment is classed as functional, cell-based, Homo sapiens.
For another experiment, the target named is T2, P2X purinoceptor 3 (Homo sapiens, UniProt P56373).
T2 sequence (P56373 whole entry): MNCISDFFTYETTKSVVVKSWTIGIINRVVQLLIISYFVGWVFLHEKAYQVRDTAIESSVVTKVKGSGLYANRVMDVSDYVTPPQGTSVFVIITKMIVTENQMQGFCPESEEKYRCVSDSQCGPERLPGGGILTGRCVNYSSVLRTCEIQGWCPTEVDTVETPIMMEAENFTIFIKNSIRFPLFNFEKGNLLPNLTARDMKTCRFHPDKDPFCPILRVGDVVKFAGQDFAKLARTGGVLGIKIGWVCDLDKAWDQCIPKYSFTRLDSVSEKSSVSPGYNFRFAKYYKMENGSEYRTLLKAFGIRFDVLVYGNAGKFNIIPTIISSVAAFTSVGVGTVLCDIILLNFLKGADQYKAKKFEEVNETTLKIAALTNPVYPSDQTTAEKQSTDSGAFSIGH
Put plainly: Inhibitory concentration against human P2X purinoceptor 3 (hP2X3) expressed in CHO-K1 cells. The experiment is classed as functional, cell-based.

In another experiment the target is T3, P2X purinoceptor 2 (Homo sapiens, UniProt Q9UBL9).
T3 sequence (Q9UBL9 whole entry): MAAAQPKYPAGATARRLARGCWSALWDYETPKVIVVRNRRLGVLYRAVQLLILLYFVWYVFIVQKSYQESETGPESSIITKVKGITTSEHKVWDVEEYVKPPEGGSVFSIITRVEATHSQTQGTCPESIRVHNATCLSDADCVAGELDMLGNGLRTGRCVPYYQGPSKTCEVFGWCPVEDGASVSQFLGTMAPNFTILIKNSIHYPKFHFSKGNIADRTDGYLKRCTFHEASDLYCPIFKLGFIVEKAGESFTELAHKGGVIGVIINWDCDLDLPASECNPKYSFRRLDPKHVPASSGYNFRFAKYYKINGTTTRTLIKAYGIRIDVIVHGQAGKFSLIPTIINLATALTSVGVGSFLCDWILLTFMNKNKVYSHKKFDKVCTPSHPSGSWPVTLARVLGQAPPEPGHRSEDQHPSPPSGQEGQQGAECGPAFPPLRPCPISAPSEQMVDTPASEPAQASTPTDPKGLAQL
Put plainly: Inhibitory concentration against human P2X purinoceptor 2 (hP2X2) expressed in 1321N1 astrocytoma cells. The format is functional, cell-based.

Consider `O=C(N[C@H](Cc1cscn1)C(=O)N[C@@H](CC1CCCCC1)[C@@H](O)[C@@H](O)C1CC1)c1nc2ccccc2[nH]1`, for which the IC50 (commonly the point on the concentration scale where inhibition reaches its midpoint) against P2X purinoceptor 1 was 3 µM; in experiment [1], more than 100 µM; against P2X purinoceptor 3 it was more than 100 µM; against P2X purinoceptor 2, more than 100 µM.

The record behind these values is ChEMBL document CHEMBL1139575, “Discovery and synthesis of a novel and selective drug-like P2X(1) antagonist” (Bioorg Med Chem Lett, 2005).
